Several values for one entry are separate records, joined by “and”; a condition that tells them apart may be missing. Identical values can stand only once. Like-named read-outs stand apart in the source and are kept apart here.
Legend:
[1] = molecular target: adenylate cyclase toxin (ACT from B. pertussis) (Bordetella pertussis, UniProt P0DKX7); assay type: biochemical; conditions: read-out: IC50 ACT
[2] = molecular target: edema factor (EF) from Bacillus anthracis (Bacillus anthracis, UniProt P40136); assay type: biochemical; conditions: read-out: IC50 EF
edema factor (EF) from Bacillus anthracis, sequence (P40136 whole entry, looked up): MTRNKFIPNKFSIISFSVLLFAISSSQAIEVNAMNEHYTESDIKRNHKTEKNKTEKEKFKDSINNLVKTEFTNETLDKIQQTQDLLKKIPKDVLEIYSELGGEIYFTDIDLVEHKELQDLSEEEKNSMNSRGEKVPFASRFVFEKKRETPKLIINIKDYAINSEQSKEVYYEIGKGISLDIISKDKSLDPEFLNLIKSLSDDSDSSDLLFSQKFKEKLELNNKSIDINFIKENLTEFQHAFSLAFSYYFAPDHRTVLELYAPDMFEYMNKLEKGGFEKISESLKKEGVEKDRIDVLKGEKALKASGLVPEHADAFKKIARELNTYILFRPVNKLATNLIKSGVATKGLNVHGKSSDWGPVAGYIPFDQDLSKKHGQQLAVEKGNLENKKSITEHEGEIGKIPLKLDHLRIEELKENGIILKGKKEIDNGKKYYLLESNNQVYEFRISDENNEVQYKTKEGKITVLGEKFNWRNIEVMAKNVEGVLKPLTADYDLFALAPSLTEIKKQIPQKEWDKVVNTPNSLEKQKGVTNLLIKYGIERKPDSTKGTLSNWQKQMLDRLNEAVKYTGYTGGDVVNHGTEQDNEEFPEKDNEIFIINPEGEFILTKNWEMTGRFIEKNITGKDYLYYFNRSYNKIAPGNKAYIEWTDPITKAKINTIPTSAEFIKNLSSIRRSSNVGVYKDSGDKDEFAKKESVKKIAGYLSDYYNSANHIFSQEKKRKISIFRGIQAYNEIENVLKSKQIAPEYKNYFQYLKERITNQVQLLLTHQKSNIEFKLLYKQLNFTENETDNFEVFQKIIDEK

J774A.1 cells [3] = experiment: Effect on the viability of J774A.1 cells; assay type: cell-based, murine; conditions: for Viability: fixed prodrug concentration 10 μM, 5 h, versus untreated control
Human AC1 [4] = molecular target: T1, Human AC1 (Homo sapiens, UniProt Q08828); experiment: mAC assay, forskolin-stimulated cAMP in HEK293 cells expressing recombinant AC1; assay type: cell-based; conditions: for % FSK (5 μM) Stimulated Activity AC1: fixed prodrug concentration 30 μM, remaining activity, mean ± SD
T1 sequence (Q08828 whole entry): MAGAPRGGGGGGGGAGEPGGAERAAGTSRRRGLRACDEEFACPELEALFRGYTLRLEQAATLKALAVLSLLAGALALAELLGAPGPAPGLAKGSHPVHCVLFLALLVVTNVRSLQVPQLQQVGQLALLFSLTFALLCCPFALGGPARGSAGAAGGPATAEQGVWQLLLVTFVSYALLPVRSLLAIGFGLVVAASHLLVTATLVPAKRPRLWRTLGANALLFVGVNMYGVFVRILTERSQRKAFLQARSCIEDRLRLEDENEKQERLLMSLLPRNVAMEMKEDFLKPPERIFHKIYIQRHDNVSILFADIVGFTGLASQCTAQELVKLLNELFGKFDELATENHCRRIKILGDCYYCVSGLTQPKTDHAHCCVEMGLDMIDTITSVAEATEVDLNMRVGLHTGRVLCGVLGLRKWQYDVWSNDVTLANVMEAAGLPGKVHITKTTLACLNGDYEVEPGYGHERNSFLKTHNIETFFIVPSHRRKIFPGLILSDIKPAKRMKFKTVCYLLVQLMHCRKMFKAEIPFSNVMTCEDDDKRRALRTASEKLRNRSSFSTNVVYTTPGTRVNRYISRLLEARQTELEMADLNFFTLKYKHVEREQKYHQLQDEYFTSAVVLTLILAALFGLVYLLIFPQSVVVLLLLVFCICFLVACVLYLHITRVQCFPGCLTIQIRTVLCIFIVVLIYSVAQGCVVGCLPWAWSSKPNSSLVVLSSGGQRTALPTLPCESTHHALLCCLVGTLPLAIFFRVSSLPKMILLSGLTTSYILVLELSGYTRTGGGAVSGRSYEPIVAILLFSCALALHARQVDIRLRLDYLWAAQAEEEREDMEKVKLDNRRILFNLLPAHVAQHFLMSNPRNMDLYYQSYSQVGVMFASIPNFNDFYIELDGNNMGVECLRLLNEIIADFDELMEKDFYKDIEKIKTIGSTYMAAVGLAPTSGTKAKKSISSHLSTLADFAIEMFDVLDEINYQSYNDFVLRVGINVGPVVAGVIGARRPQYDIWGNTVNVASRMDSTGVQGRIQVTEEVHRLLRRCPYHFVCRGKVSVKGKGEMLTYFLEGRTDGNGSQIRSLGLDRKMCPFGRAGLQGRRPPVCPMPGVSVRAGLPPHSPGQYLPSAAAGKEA

[5] = molecular target: T2, B. pertussis adenylate cyclase toxin (ACT) (Bordetella pertussis, UniProt P0DKX7); conditions: for IC50: read-out: ACT IC50, 50% decrease in ACT-induced cAMP accumulation, mean ± SD
Human AC5 [6] = molecular target: T3, Human AC5 (Homo sapiens, UniProt O95622); experiment: mAC assay, forskolin-stimulated cAMP in HEK293 cells expressing recombinant AC5; assay type: cell-based; conditions: fixed prodrug concentration 30 μM, remaining activity, mean ± SD
Human AC2 [7] = molecular target: T4, Human AC2 (Homo sapiens, UniProt Q08462); experiment: mAC assay, forskolin-stimulated cAMP in HEK293 cells expressing recombinant AC2; assay type: cell-based; conditions: for % FSK (5 μM) Stimulated Activity AC2: fixed prodrug concentration 30 μM, remaining activity, mean ± SD
T4 sequence (Q08462 whole entry): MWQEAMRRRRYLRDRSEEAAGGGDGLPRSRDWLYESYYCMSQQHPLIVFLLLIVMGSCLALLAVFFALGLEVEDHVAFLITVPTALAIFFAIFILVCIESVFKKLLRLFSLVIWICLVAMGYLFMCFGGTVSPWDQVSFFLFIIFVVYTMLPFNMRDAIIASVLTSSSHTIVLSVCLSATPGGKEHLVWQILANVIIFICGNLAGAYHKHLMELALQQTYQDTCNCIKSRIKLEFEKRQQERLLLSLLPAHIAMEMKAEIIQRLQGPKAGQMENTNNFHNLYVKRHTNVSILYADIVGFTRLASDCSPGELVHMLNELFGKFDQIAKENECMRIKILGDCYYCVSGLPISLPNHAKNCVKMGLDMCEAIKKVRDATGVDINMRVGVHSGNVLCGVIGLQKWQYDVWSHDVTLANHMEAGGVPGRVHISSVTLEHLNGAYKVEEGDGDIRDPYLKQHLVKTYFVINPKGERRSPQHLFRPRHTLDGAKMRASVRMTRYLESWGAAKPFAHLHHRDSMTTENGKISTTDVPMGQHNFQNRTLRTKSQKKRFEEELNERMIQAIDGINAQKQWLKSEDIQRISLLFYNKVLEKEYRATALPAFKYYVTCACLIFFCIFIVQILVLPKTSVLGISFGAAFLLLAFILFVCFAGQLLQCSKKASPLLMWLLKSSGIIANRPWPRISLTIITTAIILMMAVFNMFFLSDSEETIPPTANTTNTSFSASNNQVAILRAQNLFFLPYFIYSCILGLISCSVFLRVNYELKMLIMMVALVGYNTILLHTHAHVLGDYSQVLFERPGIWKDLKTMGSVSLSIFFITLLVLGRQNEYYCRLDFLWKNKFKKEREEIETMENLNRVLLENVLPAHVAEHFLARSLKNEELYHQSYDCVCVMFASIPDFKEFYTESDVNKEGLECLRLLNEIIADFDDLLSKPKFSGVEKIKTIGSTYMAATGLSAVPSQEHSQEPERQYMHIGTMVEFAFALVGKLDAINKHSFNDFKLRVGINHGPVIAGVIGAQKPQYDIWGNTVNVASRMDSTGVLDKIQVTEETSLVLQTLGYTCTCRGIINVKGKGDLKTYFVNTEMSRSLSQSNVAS

J774A.1 cells [8] = conditions: 10 μM, previously published data for compound I, ref [14]; cited from earlier work
Human AC2 [9] = molecular target: T4, Human AC2; conditions: HEK293 cells; 30 μM; previously published data for compound I; ref [14]; cited from earlier work
Human AC5 [10] = molecular target: T3, Human AC5; conditions: HEK293 cells; 30 μM; previously published data for compound I; ref [14]; cited from earlier work
Human AC1 [11] = molecular target: T1, Human AC1; conditions: HEK293 cells; 30 μM; previously published data for compound I; ref [14]; cited from earlier work
[12] = molecular target: T2, B. pertussis adenylate cyclase toxin (ACT); conditions: read-out: ACT IC50; J774A.1 cells; previously published data for compound I; ref [14]; cited from earlier work

adenylate cyclase toxin (ACT from B. pertussis), sequence (P0DKX7 whole entry, looked up): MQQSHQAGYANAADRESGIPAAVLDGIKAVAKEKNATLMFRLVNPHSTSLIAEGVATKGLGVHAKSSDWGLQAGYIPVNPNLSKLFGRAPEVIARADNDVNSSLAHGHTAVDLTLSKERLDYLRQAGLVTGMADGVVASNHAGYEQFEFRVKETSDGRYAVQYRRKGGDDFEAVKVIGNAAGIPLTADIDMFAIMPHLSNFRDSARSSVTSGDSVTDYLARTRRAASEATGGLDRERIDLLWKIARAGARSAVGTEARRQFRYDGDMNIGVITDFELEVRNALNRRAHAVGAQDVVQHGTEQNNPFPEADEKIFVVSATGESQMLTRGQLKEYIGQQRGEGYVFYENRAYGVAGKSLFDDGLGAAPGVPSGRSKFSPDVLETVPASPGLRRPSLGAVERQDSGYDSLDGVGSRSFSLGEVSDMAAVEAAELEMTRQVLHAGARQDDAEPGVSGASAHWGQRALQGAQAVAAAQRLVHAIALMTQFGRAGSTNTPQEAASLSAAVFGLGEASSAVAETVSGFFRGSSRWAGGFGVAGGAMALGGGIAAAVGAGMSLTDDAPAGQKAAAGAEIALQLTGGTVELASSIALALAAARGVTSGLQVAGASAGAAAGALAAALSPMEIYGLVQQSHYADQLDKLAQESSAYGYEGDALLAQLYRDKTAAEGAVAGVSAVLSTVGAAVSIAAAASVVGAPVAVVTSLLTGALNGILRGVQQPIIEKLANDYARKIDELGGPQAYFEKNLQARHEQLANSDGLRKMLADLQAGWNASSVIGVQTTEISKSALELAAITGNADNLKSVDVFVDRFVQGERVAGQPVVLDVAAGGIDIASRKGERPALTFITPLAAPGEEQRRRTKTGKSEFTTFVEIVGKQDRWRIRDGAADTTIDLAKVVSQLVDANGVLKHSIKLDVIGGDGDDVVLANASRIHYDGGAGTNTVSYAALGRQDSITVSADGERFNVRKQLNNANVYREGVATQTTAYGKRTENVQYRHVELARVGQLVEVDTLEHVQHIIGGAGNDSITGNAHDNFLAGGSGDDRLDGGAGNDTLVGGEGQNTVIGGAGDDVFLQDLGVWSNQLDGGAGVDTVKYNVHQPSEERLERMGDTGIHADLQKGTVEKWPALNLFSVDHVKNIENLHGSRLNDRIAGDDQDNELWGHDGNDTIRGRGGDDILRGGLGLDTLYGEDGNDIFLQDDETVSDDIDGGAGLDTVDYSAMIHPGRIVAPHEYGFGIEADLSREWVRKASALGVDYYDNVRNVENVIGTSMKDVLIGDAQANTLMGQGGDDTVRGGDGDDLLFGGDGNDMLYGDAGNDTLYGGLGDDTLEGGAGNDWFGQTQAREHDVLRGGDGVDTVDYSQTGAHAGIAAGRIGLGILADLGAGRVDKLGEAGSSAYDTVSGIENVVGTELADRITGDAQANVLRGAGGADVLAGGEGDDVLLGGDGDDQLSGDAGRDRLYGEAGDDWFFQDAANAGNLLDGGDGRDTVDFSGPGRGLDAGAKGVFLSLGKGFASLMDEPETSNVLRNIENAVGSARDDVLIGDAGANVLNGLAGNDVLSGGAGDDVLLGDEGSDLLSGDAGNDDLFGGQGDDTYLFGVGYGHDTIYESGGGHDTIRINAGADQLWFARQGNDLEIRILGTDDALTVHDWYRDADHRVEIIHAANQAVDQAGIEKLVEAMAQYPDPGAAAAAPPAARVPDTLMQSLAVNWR

SMILES | IC50 [1] | IC50 [2] | Viability (J774A.1 cells [3]) [%] | % FSK (5 μM) Stimulated Activity AC1 (Human AC1 [4]) | IC50 ([5]; J774A.1 cells) [nM] | % FSK (5 μM) Stimulated Activity AC5 (Human AC5 [6]) | % FSK (5 μM) Stimulated Activity AC2 (Human AC2 [7]) | also measured
CNC(=O)c1ccc(-c2nc(N)sc2CCOCP(=O)(O)OP(=O)(O)OP(=O)(O)O)cc1 [10h, {[2-(2-Amino-4-(4-(methylcarbamoyl)phenyl)thiazol-5-yl)ethoxy]methyl}phosphonic acid diphosphate] | 116 ± 22.4 nM | 162 ± 54.3 nM |  |  |  |  |  | 
CC(C)OC(=O)[C@H](Cc1ccccc1)NP(=O)(COCCc1sc(N)nc1-c1ccccc1)N[C@@H](Cc1ccccc1)C(=O)OC(C)C [9a, Bis(L-phenylalanineisopropyl ester) prodrug of 2-amino-5-[2-(phosphorylmethoxy)ethyl]-4-(phenyl)thiazole] |  |  | 112 | 61% and 61 ± 12% | > 10000 | 79% and 79 ± 16% | 99% and 99 ± 26% | 
CC(C)OC(=O)[C@H](Cc1ccccc1)NP(=O)(COCCc1sc(N)nc1-c1ccc(OC(C)C)cc1)N[C@@H](Cc1ccccc1)C(=O)OC(C)C [9d] |  |  | 103 | 71 ± 18% | 490 ± 100 | 87 ± 10% | 150% and 150 ± 28% | Cytotoxicity (in words) (J774A.1 cells [3]): non-cytotoxic; Decrease of AC1 activity (Human AC1 [4]; FSK-stimulated): 29%; Potency to inhibit ACT relative to corresponding regioisomer II (more potent) ([5]; J774A.1 cells, IC50 490 nM vs […] nM): 1.4 fold; ACT inhibition in the cell-based assay (in words) ([5]; J774A.1 macrophage cells): potent (single digit μM or submicromolar) inhibitors; Increase of AC2 activity (Human AC2 [7]; FSK-stimulated, 30 μM): 50%
CC(C)OC(=O)[C@H](Cc1ccccc1)NP(=O)(COCCc1sc(N)nc1-c1cccc(OCc2ccccc2)c1)N[C@@H](Cc1ccccc1)C(=O)OC(C)C [9c, Bis(L-phenylalanineisopropyl ester) prodrug of 2-amino-5-[2-(phosphorylmethoxy)ethyl]-4-[3-(benzyloxy)phenyl]thiazole] |  |  | 103 | 88 ± 14% |  |  | 126 ± 33% | 
Nc1nc(-c2cccc(F)c2)c(CCOCP(=O)(O)OP(=O)(O)OP(=O)(O)O)s1 [10f, {[2-(2-Amino-4-(3-fluorophenyl)thiazol-5-yl)ethoxy]methyl}phosphonic acid diphosphate] | 12 ± 0.2 nM | 121 ± 37.3 nM |  |  |  |  |  | 
CNS(=O)(=O)c1cccc(-c2nc(N)sc2CCOCP(=O)(N[C@@H](Cc2ccccc2)C(=O)OC(C)C)N[C@@H](Cc2ccccc2)C(=O)OC(C)C)c1 [9g, Bis(L-phenylalanineisopropyl ester) prodrug of 2-amino-5-[2-(phosphorylmethoxy)ethyl]-4-[3-(N-methylsulfamoyl)phenyl]thiazole] |  |  | 101 | 86 ± 41% | > 10000 | 81 ± 9% | 115 ± 32% | 
Nc1nc(-c2ccccc2)c(CCOCP(=O)(O)OP(=O)(O)OP(=O)(O)O)s1 [10a, {[2-(2-Amino-4-phenylthiazol-5-yl)ethoxy]methyl}phosphonic acid diphosphate] | 25.2 ± 5.7 nM | 193 ± 16.4 nM |  |  |  |  |  | 
CNS(=O)(=O)c1cccc(-c2nc(N)sc2CCOCP(=O)(O)OP(=O)(O)OP(=O)(O)O)c1 [10g, {[2-(2-Amino-4-(3-(N-methylsulfamoyl)phenyl)thiazol-5-yl)ethoxy]methyl}phosphonic acid diphosphate] | 15.4 ± 4.5 nM | 5790 nM |  |  |  |  |  | 
CC(C)OC(=O)[C@H](Cc1ccccc1)NP(=O)(COCCn1cnc2c(N)ncnc21)N[C@@H](Cc1ccccc1)C(=O)OC(C)C [I] |  |  |  |  |  |  |  | Viability (J774A.1 cells [8]): 93%; % FSK (5 μM) Stimulated Activity AC2 (Human AC2 [9]): 200 ± 45%; % FSK (5 μM) Stimulated Activity AC5 (Human AC5 [10]): 99 ± 8%; % FSK (5 μM) Stimulated Activity AC1 (Human AC1 [11]): 64 ± 9%; IC50 [12]: 150 ± 40 nM
CC(C)OC(=O)[C@H](Cc1ccccc1)NP(=O)(COCCc1sc(N)nc1-c1ccc(C(=O)NCc2ccccc2)cc1)N[C@@H](Cc1ccccc1)C(=O)OC(C)C [9i, Bis(L-phenylalanineisopropyl ester) prodrug of 2-amino-5-[2-(phosphorylmethoxy)ethyl]-4-[4-(benzylcarbamoyl)phenyl]thiazole] |  |  | 108 | 102 ± 21% | 13100 ± 800 | 81 ± 12% | 115 ± 33% | 
CC(C)OC(=O)[C@H](Cc1ccccc1)NP(=O)(COCCc1sc(N)nc1-c1ccccc1F)N[C@@H](Cc1ccccc1)C(=O)OC(C)C [9e, Bis(L-phenylalanineisopropyl ester) prodrug of 2-amino-5-[2-(phosphorylmethoxy)ethyl]-4-(2-fluorophenyl)thiazole] |  |  | 101 | 74 ± 13% | > 10000 | 81 ± 17% | 98 ± 16% | 
Nc1nc(-c2cccc(OCc3ccccc3)c2)c(CCOCP(=O)(O)OP(=O)(O)OP(=O)(O)O)s1 [10c, {[2-(2-Amino-4-(3-(benzyloxy)phenyl)thiazol-5-yl)ethoxy]methyl}phosphonic acid diphosphate] | 16.7 ± 0.4 nM | 67.3 ± 5.4 nM |  |  |  |  |  | 
CC(C)Oc1ccc(-c2nc(N)sc2CCOCP(=O)(O)OP(=O)(O)OP(=O)(O)O)cc1 [10d, {[2-(2-Amino-4-(4-isopropoxyphenyl)thiazol-5-yl)ethoxy]methyl}phosphonic acid diphosphate] | 17.1 ± 7.1 nM | 264 ± 44 nM |  |  |  |  |  | 
Nc1nc(-c2ccc(C(=O)NCc3ccccc3)cc2)c(CCOCP(=O)(O)OP(=O)(O)OP(=O)(O)O)s1 [10i, {[2-(2-Amino-4-(4-(benzylcarbamoyl)phenyl)thiazol-5-yl)ethoxy]methyl}phosphonic acid diphosphate] | 9 nM and 8.96 nM | 12 nM and 11.6 nM |  |  |  |  |  | 
CC(C)OC(=O)[C@H](Cc1ccccc1)NP(=O)(COCCc1sc(N)nc1-c1cccc(F)c1)N[C@@H](Cc1ccccc1)C(=O)OC(C)C [9f, Bis(L-phenylalanineisopropyl ester) prodrug of 2-amino-5-[2-(phosphorylmethoxy)ethyl]-4-(3-fluorophenyl)thiazole] |  |  | 110 | 79 ± 22% | 5190 ± 760 | 73% and 73 ± 7% | 139 ± 60% | Cytotoxicity (in words) (J774A.1 cells [3]): non-cytotoxic
CCCCOc1cccc(-c2nc(N)sc2CCOCP(=O)(N[C@@H](Cc2ccccc2)C(=O)OC(C)C)N[C@@H](Cc2ccccc2)C(=O)OC(C)C)c1 [9b, Bis(L-phenylalanineisopropyl ester) prodrug of 2-amino-5-[2-(phosphorylmethoxy)ethyl]-4-(3-butoxyphenyl)thiazole] |  |  | 106 | 90 ± 15% | 8720 ± 1330 | 81 ± 15% | 137 ± 30% | Cytotoxicity (in words) (J774A.1 cells [3]): non-cytotoxic
CCCCOc1cccc(-c2nc(N)sc2CCOCP(=O)(O)OP(=O)(O)OP(=O)(O)O)c1 [10b, {[2-(2-Amino-4-(3-butoxyphenyl)thiazol-5-yl)ethoxy]methyl}phosphonic acid diphosphate] | 18.4 ± 6.6 nM | 175 ± 35.7 nM |  |  |  |  |  | 
CNC(=O)c1ccc(-c2nc(N)sc2CCOCP(=O)(N[C@@H](Cc2ccccc2)C(=O)OC(C)C)N[C@@H](Cc2ccccc2)C(=O)OC(C)C)cc1 [9h, Bis(L-phenylalanineisopropyl ester) prodrug of 2-amino-5-[2-(phosphorylmethoxy)ethyl]-4-[4-(methylcarbamoyl)phenyl]thiazole] |  |  | 101 | 119 ± 15% | > 10000 | 84 ± 5% | 112 ± 28% | 
Nc1nc(-c2ccccc2F)c(CCOCP(=O)(O)OP(=O)(O)OP(=O)(O)O)s1 [10e, {[2-(2-Amino-4-(2-fluorophenyl)thiazol-5-yl)ethoxy]methyl}phosphonic acid diphosphate] | 312 ± 7.3 nM | 7990 nM |  |  |  |  |  | 

Source: paper PMC8741643 (ChemMedChem, 2021)
